Assays:
HeLa cells [1] = experiment: FACS analysis after propidium iodide staining (cell cycle, apoptosis) of HeLa cells; format: cell-based, human
Experimental: FIG. 15 illustrates that AS-7 evokes accumulation HeLa cells in the G0-G1 phase of the cell cycle. HeLa cells were harvested two days after treatment with or without AS-7, stained with propidium iodide and subjected to analysis by FACS (Fluorescence Activated Cell Sorter).
FIG. 17 illustrates that AS-7 blocks exit from the Go-G1 phase of the cell cycle. HeLa cells were treated with nocodazole which evoked accumulation of the cells in the G2-M phase of the cell cycle (Nocodazole Blocked). The cells were released from the nocodazole block and treated with or without AS-7. After 16 hours the cells were stained with propidium iodide and subjected to analysis by FACS (Fluorescence Activated Cell Sorter).
The appearance of essentially all of the AS-7 treated cells was indistinguishable from that of the untreated cells.
A single addition of 10 μM AS-7 for 1 day to 7 or more days was sufficient to evoke accumulation in the Go-G1 phase of the cell cycle (FIGS. 15 and 16) (data not shown). […] HeLa cells were treated with nocodazole (100 ng/ml) for 12 h which evoked accumulation of rounded, loosely attached cells in mitosis. The mitotic cells were harvested and treated with or without 10 μM AS-7 in the absence of nocodazole (Released, 16 hours).

[2] = system: ovarian tumor derived IGROV cells; experiment: Crystal violet cell viability of ovarian IGROV cells, bortezomib with or without AS-7 (72 hours); format: cell-based; details: 10 μM AS-7
Experimental: (§1) Ovarian tumor-derived cell lines, IGROV and A2780, were seeded in a 96 well tissue culture plate (2000 cells per well). The compounds, 10 μM AS-7 and bortezomib (BioVision, Inc., Milpitas, Calif.) at the concentrations indicated in the figures, were added the following day. AS-7 was prepared as described in Example I above. […] Values are relative to cells that with the vehicle in which the drugs were dissolved. Vehicle had no effect on cell viability. Error bars in FIG. 6 and FIG. 7 are not shown if they are smaller than the symbols.

T47D cells = experiment: MTS cell viability of breast cancer T47D cells, bortezomib with or without AS-7; format: cell-based, human; details: 10 μM AS-7, data not shown
Experimental: (§2) Breast cancer derived cell lines, T47D and 159C, were seeded in a 96 well tissue culture plate (2000 cells per well). The significance of these two lines of breast cancer derived cell lines is that the T47D cells positive for three markers used to optimize the chemotherapeutic treatment, namely HER2 receptor, estrogen receptor, and progesterone receptor. By contrast to the T47D cells, the 159C cells are negative for the three markers. The compounds, 10 μM AS-7 and a range of bortezomib (BioVision, Inc., Milpitas, Calif.) concentrations were added the following day. After 48 hours, MTS was added and absorbance was measured at 490 nm.

proteasome = experiment: Proteasome activity measured in lysates of treated cells; format: cell-based
Text: The cytotoxic action of bortezomib is known to be mediated by proteasome inhibition and the induction of apoptosis.

ovarian A2780 cells = experiment: Crystal violet cell viability of ovarian A2780 cells, bortezomib with or without AS-7 (72 hours); format: cell-based, human; details: A2780 cells; 10 μM AS-7
Experimental: as §1

Melanoma A2620 cells [3] = experiment: Cell proliferation (growth rate, crystal violet) of melanoma A2620 cells with AS-7 by itself; format: cell-based, human; details: 10 μM AS-7, vehicle doubling time 2.5 days
Experimental: To examine the effect of AS-7 on the growth of several different cell lines, AS-7 at 10 μM was added to the culture medium the day after seeding the cells. The following cell lines were used to determine the effect of AS-7 on the rate of proliferation: HeLa, melanoma A2620, ovarian A2780, and breast T47D. All cell line were grown in culture medium (RPMI 1640 for the breast cancer cells and Dulbecco's modified Eagle's medium for the other cell lines) containing 10% heat inactivated fetal bovine serum without antibiotics (penicillin and streptomycin). […] The doubling times in HeLa, melanoma, ovarian and breast cancer derived cells were 0.9, 2.5, 1.0, and 1.4 days, respectively. AS-7 increased the doubling times of the HeLa, melanoma, ovarian, and breast cancer derived cells by 1.3, 1.3, 1.6, and 3.1 fold, respectively (FIGS. 11 through 14).

Melanoma A2620 cells [4] = experiment: Crystal violet cell viability of melanoma A2620 cells, bortezomib with or without AS-7 (72 hours); format: cell-based, human; details: 10 μM AS-7
Experimental: Melanoma A2620 cells were seeded in a 96 well tissue culture plate (2000 cells per well). The compounds, 10 μM AS-7 and bortezomib at the concentrations indicated in FIG. 8 were added the following day. […] Values are relative to controls that contained only the vehicle in which the drugs were dissolved. Vehicle had no effect on cell viability.

[5] = system: Multiple myeloma cells (RPMI 8226); experiment: MTS cell viability of multiple myeloma cells treated with bortezomib with or without AS-7; format: cell-based
Experimental: Multiple myeloma cells (RPMI 8226) were seeded in a 96 well tissue culture plate (2000 cells per well). The compounds, 10 μM AS-7 and bortezomib at the concentrations indicated in […], were added the following day. AS-7 was prepared as described in Example I above. After 48 hours, MTS was added and absorbance was measured at 490 nm. […] Values in FIG. 2 are relative controls that contained only the vehicle in which the drugs were dissolved. Vehicle had no effect on cell viability. Error bars in FIG. 2 are not visible if they are smaller than the symbols.

[6] = Solubility in aqueous solutions; format: physicochemical
Text: The ubiquitin-proteasome sensitizer compound and/or the ubiquitin-proteasome inhibitor compounds utilized in the method provided herein may also be modified by appending appropriate functionalities to enhance selective biological properties. Such modifications are known in the art and include those which increase biological penetration into a given biological system (e.g., blood, lymphatic system, central nervous system), increase oral availability, increase solubility to allow administration by injection, alter metabolism and alter rate of excretion. […] In some embodiments, AS-7 or an active derivative thereof can be dissolved at 50 mM AS-7 in dimethylsulfoxide containing 5% Cremaphor® EL detergent (Sigma Aldrich) and diluted approximately one thousand fold in a physiologic salt solution such as saline containing albumin in the range of the albumin concentration of blood. Alternatively, nanoparticles containing AS-7 or an active derivative thereof are administered to the subject. Nanoparticles can be made by mixing human albumin at a 3-4% solution in a salt solution of the desired pH and ionic strength, subjecting the solution to elevated pressure and releasing the solution via a small jet. Nanoparticles of optimal size can be purified by differential centrifugation. […]

HeLa cells [7] = experiment: MTS cell viability of HeLa cells treated with anticancer drug with or without AS-7 (48 hours); format: cell-based, human; details: HeLa cells; 10 μM AS-7
159C cells = experiment: MTS cell viability of breast cancer 159C cells, bortezomib with or without AS-7; format: cell-based; details: 10 μM AS-7, data not shown
Experimental: as §2

N#Cc1cccc(C(C(=O)NCC(c2ccccc2)c2ccccc2)N(CCc2c[nH]cn2)C(=O)c2ccccc2C(=O)c2ccccc2)c1 (stereo not drawn) [AS-7]
induction of apoptosis (FACS, propidium iodide) (HeLa cells [1]; HeLa cells treated with AS-7 for several days, data not shown): failed to induce apoptosis | cell cycle distribution (FACS, propidium iodide) (HeLa cells [1]; HeLa cells, 10 μM AS-7): evoked the accumulation | cell cycle progression after release from nocodazole block (HeLa cells [1]; HeLa cells, 10 μM AS-7, 16 hours after release): blocked exit from the G0-G1 phase | potentiation of the cytotoxic action of bortezomib (loss of cell viability) [2]: markedly potentiates | potentiation of the cytotoxic action of bortezomib (T47D cells): markedly potentiated | effect on proteasome activity (proteasome; cells treated with 10 ILIM AS-7 alone for various times): no effect | effect of AS-7 on proteasome inhibition by bortezomib (proteasome; data not shown): did not increase | increase in potency of the cytotoxic action of bortezomib by AS-7 (ovarian A2780 cells): approximately 3.1 fold | increase of doubling time (Melanoma A2620 cells [3]): 1.3 fold | increase in potency of the cytotoxic action of bortezomib by AS-7 (Melanoma A2620 cells [4]): approximately three | potentiation of the cytotoxic action of bortezomib (loss of multiple myeloma cell viability) ([5]; 10 μM AS-7, 48 hours, MTS): markedly potentiates | increased potency of the cytotoxic action of bortezomib upon the addition of AS-7 ([5]; FIG. 2 as printed (multiple myeloma cells)): approximately 3.5 fold | solubility in aqueous solutions [6]: limited solubility in aqueous solutions | increase in potency of the cytotoxic action of carfilzomib by AS-7 (HeLa cells [7]): approximately 3.5 fold | potentiation of the cytotoxic action of bortezomib (159C cells): markedly potentiated
